Experiment in all cases: inhibition of tumour cell growth, NCI panel, 48 h
For assay [1], the system named is NCI-H226.
In assay [2] the test system is NCI-H522.
The subject of assay [3] is CCRF-CEM.
The test system of assay [4] is OVCAR-5.
Assay [5] deals with LOX IMVI.
Assay [6] concerns IGROV-1.
The subject of assay [7] is HT-29.
Assay [8] deals with Hs-578T.
Assay [9] deals with HL-60.
For assay [10], the system named is U-251.
Assay [11] concerns HOP-92.
The test system of assay [12] is SNB-75.
Assay [13] relates to SK-MEL-2.
Assay [14] has as its system Malme-3M.
For assay [15], the system named is HCT-15.
Assay [16] deals with DU-145.
For assay [17], the system named is BT-549.
For assay [18], the system named is COLO 205.

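Values below derive from 48-hour exposures of cells grown in 96-well plates, with endpoints linearly interpolated between the two concentrations bracketing the appropriate inhibition level. GI50 = concentration required for 50% inhibition of growth.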 Activity calls are given as the source filed them. Rule as the data show it: active = GI50 up to about 1.1 µM and inactive = higher. Bounds are passed on as bounds.

For `O=[As](O)(O)c1ccc(Cc2ccc([As](=O)(O)O)cc2)cc1`, the GI50 in assay [1] was 3.78 µM (inactive); in assay [2], 0.419 µM (active); in assay [3], 0.0813 µM (active); in [4], 2.34 µM (inactive); in [5], 0.336 µM (active); in assay [6], 0.692 µM (active). Moreover, the GI50 was 0.778 µM (active) in assay [7]; 1.33 µM (inactive) in [8]; 1.09 µM (active) in assay [9]; 0.371 µM (active) in assay [10]; 1.5 µM (inactive) in assay [11]; 1.34 µM (inactive) in [12]. Further, the GI50 in [13] was 1.35 µM (inactive); in assay [14], 1.2 µM (inactive); in assay [15] it was 1.17 µM; in [16] it was 0.336 µM (active); in assay [17] it was 1.18 µM (inactive); in [18], 0.617 µM (active).
As for `Cc1cc(S(=O)(=O)Nc2n[nH]c(-c3ccc(Cl)cn3)n2)c(S)cc1Cl`, the GI50 in [1] is 33.4 µM (inactive); in assay [2], 46.1 µM (inactive); in [4] it was > 100 µM (inactive); in [5] it was > 100 µM (inactive); in [6], 44.4 µM (inactive); in assay [7] it was 39.3 µM (inactive). The GI50 was 27.9 µM (inactive) in assay [8]; 42 µM (inactive) in assay [9]; 39 µM (inactive) in assay [10]; 9.04 µM (inactive) in [11]; 80.9 µM (inactive) in assay [12]; 47.5 µM (inactive) in [13]. Also, the GI50 was > 100 µM (inactive) in assay [14]; 70.1 µM in assay [15]; > 100 µM (inactive) in assay [16]; 32.2 µM (inactive) in assay [17]; > 100 µM (inactive) in assay [18].
In the case of `N=C(N)Nc1ccc(-c2ccc(NC(=N)N)cc2)cc1`, the GI50 in [1] is 15.7 µM (inactive); in assay [2], 32.2 µM (inactive); in [3] it was 37.3 µM (inactive); in assay [4] it was 11.9 µM (inactive); in assay [5] it was 50.8 µM (inactive); in [6], 20.2 µM (inactive). Moreover, the GI50 was 45.5 µM (inactive) in assay [7]; 19.4 µM (inactive) in assay [8]; 40.9 µM (inactive) in [9]; 23.6 µM (inactive) in assay [10]; 45 µM (inactive) in assay [11]; 9.12 µM (inactive) in assay [12]. In addition, the GI50 in assay [13] is 34.4 µM (inactive); in assay [14], 19 µM (inactive); in assay [15], 49.5 µM; in assay [16] it was 25.9 µM (inactive); in assay [17], 45.8 µM (inactive); in assay [18], 21.5 µM (inactive).
In the case of `O/N=C1\C/C(=N\O)c2c(Br)sc(Br)c21`, the GI50 is 51.8 µM (inactive) in assay [1]; 17.7 µM (inactive) in assay [2]; 11.1 µM (inactive) in assay [3]; 18.8 µM (inactive) in assay [5]; 30.4 µM (inactive) in assay [6]; > 100 µM (inactive) in [7]. Further, the GI50 is 0.216 µM (active) in assay [8]; 27.4 µM (inactive) in assay [9]; 43.2 µM (inactive) in assay [10]; 46 µM (inactive) in assay [11]; 17.3 µM (inactive) in [12]; 43.4 µM (inactive) in assay [13]. The GI50 is > 100 µM (inactive) in assay [14]; 17.3 µM in assay [15]; 39.1 µM (inactive) in [16]; 31.6 µM (inactive) in assay [17]; 70.8 µM (inactive) in assay [18].
On to `CSC1=NC(C(N)=O)C(N)N1C` (stereo not drawn), for which the GI50 in [1], in [2], in assay [3], in assay [4], in [5] and in [6] was > 100 µM (inactive) in each case. Further, the GI50 in assay [7], in [8], in assay [9], in [10], in assay [11] and in assay [13] was > 100 µM (inactive) in each case. Moreover, the GI50 in assay [14] is > 100 µM (inactive); in assay [15], > 100 µM; in assay [16], > 100 µM (inactive); in assay [17], > 100 µM (inactive); in [18], > 100 µM (inactive).
With `O=C(COc1ccc(Cl)c(Cl)c1)Nc1ccc[n+](Cc2ccc(S(=O)(=O)F)c(Cl)c2)c1`, the GI50 in assay [1], in assay [2], in [4], in assay [6], in assay [7] and in assay [8] was > 100 µM (inactive) throughout. Also, the GI50 was > 100 µM (inactive) in assay [9]; > 100 µM (inactive) in assay [10]; > 100 µM (inactive) in assay [11]; > 100 µM (inactive) in assay [12]; > 100 µM (inactive) in [13]; 51.2 µM (inactive) in assay [14]. In addition, the GI50 is > 100 µM in assay [15], > 100 µM (inactive) in [16], > 100 µM (inactive) in assay [17] and > 100 µM (inactive) in [18].
On to `COC1CC(C)([N+](=O)[O-])C(O)C(C)O1` (stereo not drawn), for which the GI50 in assay [1], in assay [2], in assay [3], in [4], in [5] and in assay [6] was > 100 µM (inactive) throughout. Moreover, the GI50 in assay [7], in assay [8], in [9], in assay [10], in assay [11] and in assay [12] was > 100 µM (inactive) in each case. The GI50 in assay [13] is > 100 µM (inactive); in [14], > 100 µM (inactive); in [15], > 100 µM; in [16] it was > 100 µM (inactive); in [17], 91.6 µM (inactive); in assay [18], > 100 µM (inactive).
In the case of `O=C(/C=C/c1c[nH]c2ccccc12)c1ccccc1O`, the GI50 in assay [1] was 16.7 µM (inactive); in assay [2], 7.64 µM (inactive); in [4], 13.6 µM (inactive); in [5], 5.08 µM (inactive); in assay [6] it was 3.83 µM (inactive); in assay [7] it was 15.1 µM (inactive). In addition, the GI50 was 22.6 µM (inactive) in assay [8]; 13.6 µM (inactive) in [9]; 13.4 µM (inactive) in assay [10]; 4.68 µM (inactive) in assay [11]; 11.6 µM (inactive) in assay [12]; 3.55 µM (inactive) in assay [13]. Moreover, the GI50 was 11.7 µM (inactive) in [14], 9.89 µM in [15], 11.7 µM (inactive) in [16] and 12.4 µM (inactive) in assay [17].
Consider `COC(=O)/C(C#N)=C(\Nc1ccccc1)N1CCOCC1`, for which the GI50 in assay [1], in assay [2], in assay [4], in assay [5], in assay [6] and in [7] was > 100 µM (inactive) each time. Also, the GI50 in [8], in assay [9], in assay [10], in assay [11], in assay [12] and in [13] was > 100 µM (inactive) in each case. Further, the GI50 was > 100 µM (inactive) in assay [14]; > 100 µM in assay [15]; > 100 µM (inactive) in assay [16]; > 100 µM (inactive) in assay [17]; > 100 µM (inactive) in assay [18].
Turning to `Cc1cc2c(cc1C)C(=O)C1(C2)Cc2cc3c(cc2C1=O)CCC3` (stereo not drawn), the GI50 in assay [1], in assay [2], in [3], in assay [4], in assay [6] and in assay [7] was > 100 µM (inactive) each time. Moreover, the GI50 in [8], in [9], in assay [10], in assay [11], in [12] and in assay [13] was > 100 µM (inactive) throughout. In addition, the GI50 in [14] was > 100 µM (inactive); in assay [15], > 100 µM; in [16] it was > 100 µM (inactive); in assay [17], > 100 µM (inactive); in assay [18], > 100 µM (inactive).
As for `CCCCc1ccc2[n+](c1)C(C(=O)OCC)=PC2` (stereo not drawn), the GI50 in assay [2] is 54.2 µM (inactive); in assay [3], 42.4 µM (inactive); in assay [4], > 100 µM (inactive); in [6] it was > 100 µM (inactive); in assay [7] it was 42.8 µM (inactive); in assay [8] it was 66.7 µM (inactive). In addition, the GI50 was 40.7 µM (inactive) in [9]; 71.4 µM (inactive) in [10]; > 100 µM (inactive) in [11]; 44.7 µM (inactive) in assay [12]; > 100 µM (inactive) in assay [14]; 39.6 µM in assay [15]. Moreover, the GI50 in assay [16], in assay [17] and in assay [18] was > 100 µM (inactive) throughout.
Consider `O=c1c2cc(Cl)ccc2[nH]c2cc(O)cc(O)c12`, for which the GI50 in assay [1] was 1.61 µM (inactive); in assay [2] it was > 10 µM (inactive); in assay [3], > 10 µM (inactive); in assay [4] it was > 10 µM (inactive); in [6], > 10 µM (inactive); in assay [7], > 10 µM (inactive). Moreover, the GI50 in [8] is > 10 µM (inactive); in assay [9], > 10 µM (inactive); in assay [10] it was > 10 µM (inactive); in assay [11], > 10 µM (inactive); in assay [12], 2.95 µM (inactive); in assay [13] it was > 10 µM (inactive). Besides, the GI50 in assay [14] was > 10 µM (inactive); in assay [15], > 10 µM; in assay [16] it was > 10 µM (inactive); in [17] it was > 10 µM (inactive); in assay [18] it was > 10 µM (inactive).

The record behind these values is ChEMBL document CHEMBL1201862, “PubChem BioAssay data set” (2004).
